Reference: patent US7319098B2, “1,3-dioxoisoindole derivatives having selective antagonism of T-type calcium channel” (Korea Institute of Science and Technology, priority 2006, dated 2008)

Columns and labels:
α1G T-type Ca2+ channels = target: T1, α1G T-type Ca2+ channels (Homo sapiens, UniProt O43497); experiment: Screening of activity against T-type calcium channel with FDSS6000 (fluorescence, KCl-induced [Ca2+]i increase); format: cell-based; settings: HEK293 cells expressing α1G and Kir2.1, read-out: Inhibitory effect (%) of T-type calcium channel, Inhibition (%); for inhibition at 10 µM: NA: Not Active
T1 construct: expressed in transfected cells; host or cells: HEK293 cells stably expressing α1G and Kir2.1
How it was run: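 HEK293 cells stably expressing α1G plus Kir2.1 were loaded with 5 μM fluo3/AM for 60 min at room temperature in HEPES buffer pH 7.4. In buffer with 10 mM CaCl2, cells were pretreated with compound, then depolarized with 70 mM KCl. The rise in [Ca2+]i was measured by fluorescence […].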

α1G T-type Ca2+ currents = target: T2, α1G T-type Ca2+ currents (Homo sapiens, UniProt O43497); experiment: Electrophysiological whole cell patch clamp method in HEK293 cell; format: cell-based; settings: peak current, step to −30 mV, read-out: Activity (IC50) against T-type calcium channel
T2 construct: expressed in transfected cells; host or cells: HEK293
Protocol: Meanwhile, the antagonistic activity of the novel compound of Formula (1) herein against T-type calcium channel was tested as described below. The synthesized compounds were tested for the activity against T-type calcium channel with FDSS6000. […] For the recordings of α1G T-type Ca^2+ currents, the standard whole-cell patch-clamp method was utilized as previously described. Briefly, borosilicate glass electrodes with a resistance of 3˜4 MΩ were pulled and filled with the internal solution contained (in mM): 130 KCl, 11 EGTA, 5 Mg-ATP, and 10 HEPES (pH 7.4). […] The molar concentrations of test compounds required to produce 50% inhibition of peak currents (IC50) were determined from fitting raw data into dose-response curves. The current recordings were obtained using an EPC-9 amplifier and Pulse/Pulsefit software program (HEKA, Germany).

[1] = spinal nerve ligation animal model; cited from earlier work

T2 sequence (O43497 whole entry): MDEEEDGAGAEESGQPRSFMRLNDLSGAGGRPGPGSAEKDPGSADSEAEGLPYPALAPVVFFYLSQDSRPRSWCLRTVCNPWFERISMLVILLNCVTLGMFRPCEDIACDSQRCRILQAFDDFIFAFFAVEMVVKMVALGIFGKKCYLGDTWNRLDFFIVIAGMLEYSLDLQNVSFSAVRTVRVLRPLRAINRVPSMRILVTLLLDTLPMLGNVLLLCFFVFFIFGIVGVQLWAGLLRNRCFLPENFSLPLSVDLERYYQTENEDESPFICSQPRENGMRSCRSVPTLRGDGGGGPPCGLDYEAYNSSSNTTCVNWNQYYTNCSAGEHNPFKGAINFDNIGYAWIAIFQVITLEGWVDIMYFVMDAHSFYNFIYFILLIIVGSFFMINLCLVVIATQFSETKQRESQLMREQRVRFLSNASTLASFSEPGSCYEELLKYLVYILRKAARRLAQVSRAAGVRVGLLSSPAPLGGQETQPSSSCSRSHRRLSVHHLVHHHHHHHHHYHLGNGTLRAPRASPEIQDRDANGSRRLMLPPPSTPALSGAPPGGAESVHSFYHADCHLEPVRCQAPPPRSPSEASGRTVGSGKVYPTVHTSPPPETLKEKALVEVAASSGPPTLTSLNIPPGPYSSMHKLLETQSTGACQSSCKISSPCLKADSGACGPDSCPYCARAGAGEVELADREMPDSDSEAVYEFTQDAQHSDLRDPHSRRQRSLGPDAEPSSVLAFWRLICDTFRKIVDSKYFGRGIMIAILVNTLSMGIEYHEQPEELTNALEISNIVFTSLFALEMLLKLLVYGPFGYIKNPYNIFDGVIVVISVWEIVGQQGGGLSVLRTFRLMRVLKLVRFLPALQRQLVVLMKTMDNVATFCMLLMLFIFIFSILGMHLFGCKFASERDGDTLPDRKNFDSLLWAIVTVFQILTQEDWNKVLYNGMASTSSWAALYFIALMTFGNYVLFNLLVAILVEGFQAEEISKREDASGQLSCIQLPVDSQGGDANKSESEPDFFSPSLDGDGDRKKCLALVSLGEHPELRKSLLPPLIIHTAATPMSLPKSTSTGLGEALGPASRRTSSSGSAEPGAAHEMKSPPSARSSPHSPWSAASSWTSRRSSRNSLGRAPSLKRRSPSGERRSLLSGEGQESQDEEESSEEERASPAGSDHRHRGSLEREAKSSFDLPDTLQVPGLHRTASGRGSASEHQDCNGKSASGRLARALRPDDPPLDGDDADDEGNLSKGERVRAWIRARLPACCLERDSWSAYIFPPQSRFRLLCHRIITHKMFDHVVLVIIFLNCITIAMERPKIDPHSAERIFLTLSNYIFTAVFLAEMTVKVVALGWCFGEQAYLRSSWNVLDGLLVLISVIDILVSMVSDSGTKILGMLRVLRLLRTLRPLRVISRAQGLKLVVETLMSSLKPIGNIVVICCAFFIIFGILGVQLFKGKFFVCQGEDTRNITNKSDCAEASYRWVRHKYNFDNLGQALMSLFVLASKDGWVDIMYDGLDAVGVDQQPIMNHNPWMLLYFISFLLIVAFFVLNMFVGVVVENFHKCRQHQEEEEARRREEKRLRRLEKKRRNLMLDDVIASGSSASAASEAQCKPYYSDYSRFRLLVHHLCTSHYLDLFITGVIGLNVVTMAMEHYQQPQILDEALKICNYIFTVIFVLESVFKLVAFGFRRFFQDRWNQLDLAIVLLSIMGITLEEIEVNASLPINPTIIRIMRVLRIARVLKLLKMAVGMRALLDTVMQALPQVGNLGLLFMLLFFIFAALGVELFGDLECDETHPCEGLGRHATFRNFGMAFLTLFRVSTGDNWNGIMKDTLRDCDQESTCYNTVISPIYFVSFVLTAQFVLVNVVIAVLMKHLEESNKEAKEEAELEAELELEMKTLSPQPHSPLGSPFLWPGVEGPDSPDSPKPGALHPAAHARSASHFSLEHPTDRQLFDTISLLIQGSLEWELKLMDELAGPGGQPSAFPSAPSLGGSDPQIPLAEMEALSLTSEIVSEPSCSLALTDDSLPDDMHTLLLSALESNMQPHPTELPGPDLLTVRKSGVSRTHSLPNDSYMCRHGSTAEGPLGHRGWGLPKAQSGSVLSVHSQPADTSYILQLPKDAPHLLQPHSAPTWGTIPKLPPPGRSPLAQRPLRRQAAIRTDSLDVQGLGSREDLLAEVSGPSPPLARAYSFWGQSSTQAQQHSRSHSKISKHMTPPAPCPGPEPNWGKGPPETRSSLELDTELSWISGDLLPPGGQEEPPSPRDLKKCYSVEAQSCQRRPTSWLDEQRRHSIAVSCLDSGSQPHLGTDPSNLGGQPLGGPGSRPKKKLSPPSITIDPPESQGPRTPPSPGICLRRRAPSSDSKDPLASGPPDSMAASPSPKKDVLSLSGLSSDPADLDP
T1 sequence (O43497 whole entry): as above

Compound	inhibition at 100 µM (α1G T-type Ca2+ channels)	IC50 (α1G T-type Ca2+ currents)	inhibition at 10 µM (α1G T-type Ca2+ channels)	effect on mechanic and thermal induction (neurogenic pain) [1]
O=C(NCCN1CCCCC1)c1ccc2c(c1)C(=O)N(Cc1cccc(F)c1)C2=O [Compound 61, 1-(2-{[2-(3-fluoro-benzyl)-1,3-dioxo-2,3-dihydro-1H-isoindol-5-carbonyl]-amino}-ethyl)-piperidinium chloride]	85.5%	8520 ± 750 nM		
CC1CCCCN1CCCNC(=O)c1ccc2c(c1)C(=O)N(Cc1ccc(F)cc1)C2=O (stereo not drawn) [Compound 69, 1-(3-{[2-(4-fluoro-benzyl)-1,3-dioxo-2,3-dihydro-1H-isoindol-5-carbonyl]-amino}-propyl)-2-methyl-piperidinium chloride]	84.7%	2030 ± 120 nM		
CC1CCCCN1CCCNC(=O)c1ccc2c(c1)C(=O)N(Cc1ccccc1Cl)C2=O (stereo not drawn) [Compound 76, 1-(3-{[2-(2-chloro-benzyl)-1,3-dioxo-2,3-dihydro-1H-isoindol-5-carbonyl]-amino}-propyl)-2-methyl-piperidinium chloride]		1520 ± 190 nM	50.9%	
CC1CCCCN1CCCNC(=O)c1ccc2c(c1)C(=O)N(Cc1cccc(Cl)c1)C2=O (stereo not drawn) [Compound 82, 1-(3-{[2-(3-chloro-benzyl)-1,3-dioxo-2,3-dihydro-1H-isoindol-5-carbonyl]-amino}-propyl)-2-methyl-piperidinium chloride]		1810 ± 460 nM	46.2%	
O=C(NCCN1CCCCC1)c1ccc2c(c1)C(=O)N(Cc1ccc(Cl)cc1)C2=O [Compound 87, 1-(2-{[2-(4-chloro-benzyl)-1,3-dioxo-2,3-dihydro-1H-isoindol-5-carbonyl]-amino}-ethyl)-piperidinium chloride]		960 ± 70 nM	47.2%	
CC1CCCCN1CCCNC(=O)c1ccc2c(c1)C(=O)N(Cc1ccc(Cl)cc1)C2=O (stereo not drawn) [Compound 88, 1-(3-{[2-(4-chloro-benzyl)-1,3-dioxo-2,3-dihydro-1H-isoindol-5-carbonyl]-amino}-propyl)-2-methyl-piperidinium chloride]		930 ± 60 nM	46.6%	
Cc1ccccc1CN1C(=O)c2ccc(C(=O)NCCN3CCCCC3)cc2C1=O [Compound 93, 1-(2-{[2-(2-methyl-benzyl)-1,3-dioxo-2,3-dihydro-1H-isoindol-5-carbonyl]-amino}-ethyl)-piperidinium chloride]	90.4%	8280 ± 2950 nM		
Cc1ccccc1CN1C(=O)c2ccc(C(=O)NCCCN3CCCCC3C)cc2C1=O (stereo not drawn) [Compound 94, 2-methyl-1-(3-{[2-(2-methyl-benzyl)-1,3-dioxo-2,3-dihydro-1H-isoindol-5-carbonyl]-amino}-propyl)-piperidinium chloride]	84.8%	2070 ± 450 nM		
Cc1cccc(CN2C(=O)c3ccc(C(=O)NCCN4CCCCC4)cc3C2=O)c1 [Compound 99, 1-(2-{[2-(3-methyl-benzyl)-1,3-dioxo-2,3-dihydro-1H-isoindol-5-carbonyl]-amino}-ethyl)-piperidinium chloride]	89.7%	1930 ± 230 nM		
Cc1cccc(CN2C(=O)c3ccc(C(=O)NCCCN4CCCCC4C)cc3C2=O)c1 (stereo not drawn) [Compound 100, 2-methyl-1-(3-{[2-(3-methyl-benzyl)-1,3-dioxo-2,3-dihydro-1H-isoindol-5-carbonyl]-amino}-propyl)-piperidinium chloride]		1840 ± 210 nM	48.4%	
COc1ccc(CN2C(=O)c3ccc(C(=O)NCCN4CCOCC4)cc3C2=O)cc1 [Compound 127, 4-(2-{[2-(4-methoxy-benzyl)-1,3-dioxo-2,3-dihydro-1H-isoindol-5-carbonyl]-amino}-ethyl)-4-morpholinium chloride]	51.7%			
COc1ccc(CN2C(=O)c3ccc(C(=O)NCCCN4CCOCC4)cc3C2=O)cc1 [Compound 128, 4-(3-{[2-(4-methoxy-benzyl)-1,3-dioxo-2,3-dihydro-1H-isoindol-5-carbonyl]-amino}-propyl)-4-morpholinium chloride]	52.9%			
CC1CCCCN1CCCNC(=O)c1ccc2c(c1)C(=O)N(Cc1ccc(C#N)cc1)C2=O (stereo not drawn) [Compound 130, 1-(3-{[2-(4-cyano-benzyl)-1,3-dioxo-2,3-dihydro-1H-isoindol-5-carbonyl]-amino}-propyl)-2-methyl-piperidinium chloride]			9.1%	
N#Cc1ccc(CN2C(=O)c3ccc(C(=O)NCCN4CCCC4)cc3C2=O)cc1 [Compound 131, 1-(2-{[2-(4-cyano-benzyl)-1,3-dioxo-2,3-dihydro-1H-isoindol-5-carbonyl]-amino}-ethyl)-pyrrolidinium chloride]			0.6%	
CCC1(C)CC(=O)NC1=O (stereo not drawn) [Ethosuximide]				dosage-dependent reversed mechanic and thermal induction
COCC(=O)O[C@]1(CCN(C)CCCc2nc3ccccc3[nH]2)CCc2cc(F)ccc2[C@@H]1C(C)C [Mibefradil, reference compound]			75.1%	dosage-dependent reversed mechanic and thermal induction
